# Data: the supplement of paper PMC11208160
# Test: recombinant barcode read abundance after kanamycin selection (control-corrected) (log10(CPM+1)); higher = more efficient recombination; sequences stand for … in AGTGCAGAGAAAATCGGCCAGTTTTCTCTGCCTGCAGTCCGCATGCCGT…AGATTTATGCAGCGGACTGCCTTTCTCCCAAAGTGATAAACCGGACAGTATCATGGACCGGTTTTCCCGGTAATCCGTATTTGCAAGGTTGGTTTCACT; site = the 11-nt target
# How it was run: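 Each value is log10(CPM+1). It describes recombination efficiency, taken as averaged, control-corrected counts per million of barcodes at recombinant junctions. The pooled E. coli library paired targets with IS621 bridge RNA target-binding loops, was co-electroporated with a donor plasmid, and was plated twice on chloramphenicol/ampicillin LB agar (control) and twice on chloramphenicol/ampicillin/kanamycin containing 0.1 mM IPTG.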
# 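Note: IS621 recombinase and bridge RNA in Escherichia coli cells.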
row,Sequence,recombinant barcode read abundance (log10)
1,ATATGTCCTTGGGTTCTAACCTGTTGCAG (site ATAGGACCTCT),0
2,ATATGTCCTTGGGTTCTAACCTGTTGCAG (site ATATGTCCTCT),1.88
3,ATATTATCTTGGGTTCTAACCTGTTGCCA (site ATATGATCTAG),0.0788
4,ATATTATCTTGGGTTCTAACCTGTTGCCA (site ATATTATCTTG),0.29
5,ATATTGTCTTGGGTTCTAACCTGTTGCCA (site ATATTGCCTAG),0.0374
6,ATATTGTCTTGGGTTCTAACCTGTTGCCA (site ATATTGTCTTG),0.611
7,ATCACTACTTGGGTTCTAACCTGTTGCCT (site ATCACTACTAG),0.207
8,ATCACTACTTGGGTTCTAACCTGTTGCCT (site CTTACTACTAG),0.0823
9,ATCCGCTCTTGGGTTCTAACCTGTTGCCT (site ATCCGCTCTAG),2.06
10,ATCCGCTCTTGGGTTCTAACCTGTTGCCT (site CTCCGCTCTAG),1
11,ATCCGCTCTTGGGTTCTAACCTGTTGCCT (site GTCCGCTCTAG),0.0221
12,ATCCGCTCTTGGGTTCTAACCTGTTGCCT (site TTCCGCTCTAG),0.771
13,ATCCTACCTTGGGTTCTAACCTGTTGCTT (site ATCCTACCTAA),1.72
14,ATCCTACCTTGGGTTCTAACCTGTTGCTT (site ATCGTACCTCA),0.113
15,ATCGAGTCTTGGGTTCTAACCTGTTGCCA (site ATCGAGTCTTG),0.276
16,ATCGAGTCTTGGGTTCTAACCTGTTGCCA (site CAAATCCCTAC),0.112
17,ATCGGAACTTGGGTTCTAACCTGTTGCCT (site ATCGGAACTAG),1.01
18,ATCGGAACTTGGGTTCTAACCTGTTGCCT (site ATCGGACCTAG),0.0301
19,ATCGGAACTTGGGTTCTAACCTGTTGCCT (site ATCGGAGCTAG),0.13
20,ATCGGAACTTGGGTTCTAACCTGTTGCCT (site ATCGGATCTAG),0.209
21,ATCGGACCTTGGGTTCTAACCTGTTGCTG (site ATCGGACCTCA),0.901
22,ATCGGACCTTGGGTTCTAACCTGTTGCTG (site TATAATGCTAC),0.148
23,ATCGGAGCTTGGGTTCTAACCTGTTGCAG (site ATCGGAGCTCA),0.504
24,ATCGGAGCTTGGGTTCTAACCTGTTGCAG (site ATCGGAGCTCC),0.166
25,ATCGGAGCTTGGGTTCTAACCTGTTGCAG (site ATCGGAGCTCG),0.294
26,ATCGGAGCTTGGGTTCTAACCTGTTGCAG (site ATCGGAGCTCT),0.953

row,Sequence,recombinant barcode read abundance (log10)
1,ATCGGAGCTTGGGTTCTAACCTGTTGCCG (site ATCGGAGCTCA),0.165
2,ATCGGAGCTTGGGTTCTAACCTGTTGCCG (site ATCGGAGCTCC),0.0715
3,ATCGGAGCTTGGGTTCTAACCTGTTGCCG (site ATCGGAGCTCG),0.497
4,ATCGGAGCTTGGGTTCTAACCTGTTGCCG (site ATCGGAGCTCT),0.123
5,ATCGGTCCTTGGGTTCTAACCTGTTGCCT (site ATAGGTCCTAG),0.476
6,ATCGGTCCTTGGGTTCTAACCTGTTGCCT (site ATCGGTCCTAG),1.29
7,ATCGGTCCTTGGGTTCTAACCTGTTGCCT (site ATGGGTCCTAG),0.0682
8,ATCGGTCCTTGGGTTCTAACCTGTTGCCT (site ATTGGTCCTAG),0.174
9,ATCGTACCTTGGGTTCTAACCTGTTGCTA (site ATCGTACCTTA),0.0937
10,ATCGTACCTTGGGTTCTAACCTGTTGCTA (site CAAAAGGCTAG),0.973
11,ATCGTTGCTTGGGTTCTAACCTGTTGCCT (site ATCGTTGCTAG),0.657
12,ATCGTTGCTTGGGTTCTAACCTGTTGCCT (site CTCGTTGCTAG),0.0176
13,ATCGTTGCTTGGGTTCTAACCTGTTGCCT (site GTCGTTGCTAG),0.0617
14,ATCGTTGCTTGGGTTCTAACCTGTTGCCT (site TTCGTTGCTAG),0.0404
15,ATCTAGGCTTGGGTTCTAACCTGTTGCCG (site ATCTAGGCTCG),0.0337
16,ATCTAGGCTTGGGTTCTAACCTGTTGCCG (site CATAGATCTAT),0.099
17,ATCTGGGCTTGGGTTCTAACCTGTTGCCT (site AACTGGGCTAG),0.339
18,ATCTGGGCTTGGGTTCTAACCTGTTGCCT (site ACCTGGGCTAG),0.0625
19,ATCTGGGCTTGGGTTCTAACCTGTTGCCT (site AGCTGGGCTAG),0.123
20,ATCTGGGCTTGGGTTCTAACCTGTTGCCT (site ATCTGGGCTAG),0.0992
21,ATCTTAACTTGGGTTCTAACCTGTTGCCT (site ATCTTAACTAG),0.183
22,ATCTTAACTTGGGTTCTAACCTGTTGCCT (site ATCTTACCTAG),0.643
23,ATCTTAACTTGGGTTCTAACCTGTTGCCT (site ATCTTAGCTAG),0.337
24,ATCTTAACTTGGGTTCTAACCTGTTGCCT (site ATCTTATCTAG),0.00981
25,ATCTTGTCTTGGGTTCTAACCTGTTGCCT (site ATCTTGTCTAG),0.977
26,ATCTTGTCTTGGGTTCTAACCTGTTGCCT (site ATCTTGTCTCG),0.0162

row,Sequence,recombinant barcode read abundance (log10)
1,ATGAAGACTTGGGTTCTAACCTGTTGCCT (site ATAAAGACTAG),2.09
2,ATGAAGACTTGGGTTCTAACCTGTTGCCT (site ATCAAGACTAG),1.07
3,ATGAAGACTTGGGTTCTAACCTGTTGCCT (site ATGAAGACTAG),2.13
4,ATGAAGACTTGGGTTCTAACCTGTTGCCT (site ATTAAGACTAG),1.12
5,ATGACCGCTTGGGTTCTAACCTGTTGCCA (site AGGACCACTTG),0.246
6,ATGACCGCTTGGGTTCTAACCTGTTGCCA (site ATGACCGCTTG),1.28
7,ATGACTACTTGGGTTCTAACCTGTTGCTA (site ATGACTACTGA),0.136
8,ATGACTACTTGGGTTCTAACCTGTTGCTA (site ATGACTACTTA),0.456
9,ATGAGAACTTGGGTTCTAACCTGTTGCCT (site ATGAGAACTAG),1.5
10,ATGAGAACTTGGGTTCTAACCTGTTGCCT (site ATGAGAACTCG),0.361
11,ATGATTCCTTGGGTTCTAACCTGTTGCCT (site AAGATTCCTAG),0
12,ATGATTCCTTGGGTTCTAACCTGTTGCCT (site ACGATTCCTAG),0.0545
13,ATGATTCCTTGGGTTCTAACCTGTTGCCT (site AGGATTCCTAG),0.0244
14,ATGATTCCTTGGGTTCTAACCTGTTGCCT (site ATGATTCCTAG),0.62
15,ATGATTGCTTGGGTTCTAACCTGTTGCCT (site ATGAATGCTAG),0.149
16,ATGATTGCTTGGGTTCTAACCTGTTGCCT (site ATGATTGCTAG),1.18
17,ATGCCCACTTGGGTTCTAACCTGTTGCCT (site ATGCCAACTAG),0.0683
18,ATGCCCACTTGGGTTCTAACCTGTTGCCT (site ATGCCCACTAG),1.33
19,ATGCCCACTTGGGTTCTAACCTGTTGCCT (site ATGCCGACTAG),0.049
20,ATGCCCACTTGGGTTCTAACCTGTTGCCT (site ATGCCTACTAG),0.106
21,ATGCGAGCTTGGGTTCTAACCTGTTGCAG (site ATGCGAGCTCA),0.791
22,ATGCGAGCTTGGGTTCTAACCTGTTGCAG (site ATGCGAGCTCC),0.0805
23,ATGCGAGCTTGGGTTCTAACCTGTTGCAG (site ATGCGAGCTCG),0.549
24,ATGCGAGCTTGGGTTCTAACCTGTTGCAG (site ATGCGAGCTCT),1.87
25,ATGGACCCTTGGGTTCTAACCTGTTGCTC (site ATGGACCCTGA),1.93
